# Results taken from patent US20260049085A1, “CYCLIC COMPOUNDS AND METHODS OF USING SAME” (SCHRÖDINGER, INC., priority 2022, published 2026).
# pIC50: −log10 of the molar value.
# Biological target: T1, full-length MALT1 protein His-MALT1(1-824) (Homo sapiens, UniProt Q9UDY8)
# T1 construct: full-length MALT1 protein His-MALT1(1-824); His (N); made in house; host or cells: baculovirus-infected insect cells
# T1 sequence (Q9UDY8 1-824): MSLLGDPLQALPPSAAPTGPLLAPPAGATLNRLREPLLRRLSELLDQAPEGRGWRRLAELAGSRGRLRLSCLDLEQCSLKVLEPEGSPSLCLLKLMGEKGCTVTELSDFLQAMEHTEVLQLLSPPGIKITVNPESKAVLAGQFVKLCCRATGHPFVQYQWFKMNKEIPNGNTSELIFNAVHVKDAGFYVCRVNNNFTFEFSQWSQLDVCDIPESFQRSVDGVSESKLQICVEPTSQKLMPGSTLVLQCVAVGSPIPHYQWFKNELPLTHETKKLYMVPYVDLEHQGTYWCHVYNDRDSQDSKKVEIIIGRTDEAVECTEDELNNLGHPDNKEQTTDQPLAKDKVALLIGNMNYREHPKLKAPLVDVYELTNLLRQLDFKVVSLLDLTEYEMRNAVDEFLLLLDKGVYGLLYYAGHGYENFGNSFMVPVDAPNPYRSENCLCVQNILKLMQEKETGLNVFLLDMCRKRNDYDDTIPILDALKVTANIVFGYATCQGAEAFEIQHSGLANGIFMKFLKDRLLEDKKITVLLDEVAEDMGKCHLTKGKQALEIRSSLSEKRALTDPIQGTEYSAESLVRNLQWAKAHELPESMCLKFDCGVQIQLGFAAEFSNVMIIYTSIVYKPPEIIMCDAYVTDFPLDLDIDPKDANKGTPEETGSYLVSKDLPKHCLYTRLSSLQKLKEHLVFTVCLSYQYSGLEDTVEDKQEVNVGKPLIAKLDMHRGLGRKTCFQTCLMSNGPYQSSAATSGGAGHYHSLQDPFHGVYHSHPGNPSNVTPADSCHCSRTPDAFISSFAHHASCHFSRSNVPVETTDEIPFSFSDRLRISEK
# Assay: MALT1 protease assay (Ac-LRSR-AMC tetrapeptide substrate, fluorescence)
# Format: biochemical
# Settings: 1 nM MALT1, 25 μM Ac-LRSR-AMC, 2 h pre-incubation, 8 hr incubation at RT
# Procedure, shortened: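 Full-length His-MALT1(1-824) from baculovirus-infected insect cells (1 nM) was pre-incubated 2 h at RT with compounds (0.1% DMSO), then 25 μM Ac-LRSR-AMC added in 50 mM Tris pH 7.5, 600 mM sodium citrate, 1 mM DTT, 1 mM EDTA, 0.05% BSA. Fluorescence (ex 355/em 460 nm) read after 8 h at RT; IC50 by non-linear regression of % remaining activity.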
row,pIC50,Compound
1,≤ 6.00,"Cn1ccc([C@]2(C)C[C@@H](C(=O)Nc3cnc(OC(F)F)c(C#N)c3)c3cnc4cc(F)nn4c32)n1 (single isomer, unassigned) [Example 69]"
2,≤ 6.00,"C[C@]1(c2cnn(C(F)F)c2)C[C@@H](C(=O)Nc2cnc(-n3nccn3)c(Cl)c2)c2cnc3cc(F)nn3c21 (single isomer, unassigned) [Example 27]"
3,7.00 to 8.00,"C[C@@]1(c2ccn(C(F)F)n2)C[C@H](C(=O)Nc2cnc(-n3nccn3)c(Cl)c2)c2cnc3cc(F)nn3c21 (single isomer, unassigned) [Example 90]"
4,6.00 to 7.00,"C[C@@]1(c2ccn(C(F)F)n2)C[C@H](C(=O)Nc2cnc(-c3ncccn3)c(C(F)(F)F)c2)c2cnc3cc(F)nn3c21 (single isomer, unassigned) [Example 138]"
5,≤ 6.00,"C[C@@]1(c2cnn(C(F)F)c2)C[C@@H](C(=O)Nc2cnc(-c3ncncc3F)c(C(F)(F)F)c2)c2cnc3cc(F)nn3c21 (single isomer, unassigned) [Example 119]"
6,≤ 6.00,"Cn1cc([C@]2(C)C[C@@H](C(=O)Nc3cnc(-n4nccn4)c(C(F)(F)F)c3)c3cnc4cc(F)nn4c32)cn1 (single isomer, unassigned) [Example 4]"
7,6.00 to 7.00,"CC1(n2cc([C@@]3(C)C[C@@H](C(=O)Nc4cnc(-n5nccn5)c(Cl)c4)c4cnc5cc(F)nn5c43)cn2)CC1 (single isomer, unassigned) [Example 109]"
8,> 8.00,"C[C@]1(c2cncs2)C[C@H](C(=O)Nc2cnc(-n3nccn3)c(Cl)c2)c2cnc3cc(F)nn3c21 (single isomer, unassigned) [Example 36]"
9,7.00 to 8.00,"C[C@]1(c2cnn(C(F)(F)F)c2)C[C@H](C(=O)Nc2cnc(-n3nccn3)c(Cl)c2)c2cnc3cc(F)nn3c21 (single isomer, unassigned) [Example 102]"
10,≤ 6.00,"CC1(n2ccc([C@@]3(C)C[C@@H](C(=O)Nc4cnc(-c5ncccn5)c(C(F)(F)F)c4)c4cnc5cc(F)nn5c43)n2)CC1 (single isomer, unassigned) [Example 161]"
11,6.00 to 7.00,"Cn1cc([C@]2(C)C[C@H](C(=O)Nc3cnc(-n4nccn4)c(Cl)c3)c3cnc4cc(Cl)nn4c32)cn1 (single isomer, unassigned) [Example 10]"
12,≤ 6.00,"C[C@@]1(c2cnn(C(F)F)c2)C[C@@H](C(=O)Nc2cnc(-n3nccn3)c(Cl)c2)c2cnc3cc(F)nn3c21 (single isomer, unassigned) [Example 25]"
13,7.00 to 8.00,"Cc1cc(NC(=O)[C@H]2C[C@](C)(c3cnn(C)c3)c3c2cnc2cc(F)nn32)cnc1-n1nccn1 (single isomer, unassigned) [Example 56, trans-2-fluoro-8-methyl-8-(1-methyl-1H-pyrazol-4-yl)-N-(5-methyl-6-(2H-1,2,3-triazol-2-yl)pyridin-3-yl)-7,8-dihydro-6H-cyclopenta[e]pyrazolo[1,5-a]pyrimidine-6-carboxamide]"
14,≤ 6.00,"C[C@@]1(c2ccn(C(F)F)n2)C[C@@H](C(=O)Nc2cnc(OC(F)F)c(C#N)c2)c2cnc3cc(F)nn3c21 (single isomer, unassigned) [Example 111]"
15,6.00 to 7.00,"Cn1ccc([C@@]2(C)C[C@@H](C(=O)Nc3cnc(-n4nccn4)c(C(F)(F)F)c3)c3cnc4cc(F)nn4c32)n1 (single isomer, unassigned) [Example 147]"
16,> 8.00,"Cn1ccc([C@@]2(C)C[C@H](C(=O)Nc3cnc(-n4nccn4)c(Cl)c3)c3cnc4cc(Cl)nn4c32)n1 (single isomer, unassigned) [Example 76]"
17,6.00 to 7.00,"Cn1cc([C@]2(C)C[C@H](C(=O)Nc3cnc(-n4nccn4)c(C(F)(F)F)c3)c3cnc4cc(F)nn4c32)cn1 (single isomer, unassigned) [Example 7]"
18,6.00 to 7.00,"C[C@]1(c2ccn(C(F)F)n2)C[C@@H](C(=O)Nc2ccc(-c3ncccn3)c(Cl)c2)c2cnc3cc(F)nn3c21 (single isomer, unassigned) [Example 192]"

row,pIC50,Compound
1,≤ 6.00,"C[C@@]1(c2ccn(C(F)F)n2)C[C@@H](C(=O)Nc2cnc(-c3ncccn3)c(C(F)(F)F)c2)c2cnc3cc(Cl)nn3c21 (single isomer, unassigned) [Example 172]"
2,≤ 6.00,"C[C@@]1(c2ccn(C3CC3)n2)C[C@@H](C(=O)Nc2cnc(-n3nccn3)c(Cl)c2)c2cnc3cc(F)nn3c21 (single isomer, unassigned) [Example 153]"
3,7.00 to 8.00,"C[C@@]1(c2cnn(CC(F)(F)F)c2)C[C@H](C(=O)Nc2cnc(-n3nccn3)c(Cl)c2)c2cnc3cc(F)nn3c21 (single isomer, unassigned) [Example 86]"
4,≤ 6.00,"Cn1cc([C@]2(C)C[C@@H](C(=O)Nc3ccnc(C(F)(F)F)c3)c3cnc4cc(Cl)nn4c32)cn1 (single isomer, unassigned) [Example 45]"
5,≤ 6.00,"Cn1cc([C@]2(C)C[C@@H](C(=O)Nc3cnc(-n4nccn4)c(Cl)c3)c3cnc4c(F)c(F)nn4c32)cn1 (single isomer, unassigned) [Example 13]"
6,6.00 to 7.00,"CC(F)(F)n1ccc([C@@]2(C)C[C@@H](C(=O)Nc3cnc(-c4ncccn4)c(C(F)(F)F)c3)c3cnc4cc(F)nn4c32)n1 (single isomer, unassigned) [Example 167, (cis)-8-(1-(1,1-difluoroethyl)-1H-pyrazol-3-yl)-2-fluoro-8-methyl-N-(6-(pyrimidin-2-yl)-5-(trifluoromethyl)pyridin-3-yl)-7,8-dihydro-6H-cyclopenta[e]pyrazolo[1,5-a]pyrimidine-6-carboxamide]"
7,7.00 to 8.00,"CC1(c2ccn(C(F)F)n2)CC(C(=O)Nc2cnc(-c3cccnn3)c(C(F)(F)F)c2)c2cnc3cc(F)nn3c21 (single isomer, unassigned) [Example 162]"
8,≤ 6.00,"Cn1cc([C@@]2(C)C[C@@H](C(=O)Nc3ccnc(C(F)(F)F)c3)c3cnc4cc(Cl)nn4c32)cn1 (single isomer, unassigned) [Example 47]"
9,6.00 to 7.00,"C[C@@]1(c2ccn(C(F)F)n2)C[C@H](C(=O)Nc2cnc(OC(F)F)c(C#N)c2)c2cnc3cc(F)nn3c21 (single isomer, unassigned) [Example 112]"
10,≤ 6.00,"COc1cc(NC(=O)[C@H]2C[C@](C)(c3ccn(C(F)F)n3)c3c2cnc2cc(F)nn32)cnc1-c1ncccn1 (single isomer, unassigned) [Example 179]"
11,6.00 to 7.00,"Cn1ccc([C@]2(C)C[C@H](C(=O)Nc3cnc(-n4nccn4)c(Cl)c3)c3cnc4cc(Cl)nn4c32)n1 (single isomer, unassigned) [Example 78]"
12,≤ 6.00,"Cc1cc(NC(=O)[C@@H]2C[C@@](C)(c3cnn(C)c3)c3c2cnc2cc(F)nn32)cnc1-n1nccn1 (single isomer, unassigned) [Example 57, trans-2-fluoro-8-methyl-8-(1-methyl-1H-pyrazol-4-yl)-N-(5-methyl-6-(2H-1,2,3-triazol-2-yl)pyridin-3-yl)-7,8-dihydro-6H-cyclopenta[e]pyrazolo[1,5-a]pyrimidine-6-carboxamide]"
13,7.00 to 8.00,"C[C@@]1(c2ccn(C(F)F)n2)C[C@H](C(=O)Nc2ccc(-c3ncccn3)c(C(F)(F)F)c2)c2cnc3cc(F)nn3c21 (single isomer, unassigned) [Example 187]"
14,≤ 6.00,"Cn1cc([C@]2(C)C[C@H](C(=O)Nc3cnc(-n4nccn4)c(Cl)c3)c3cnc4c(Cl)c(F)nn4c32)cn1 (single isomer, unassigned) [Example 18, cis-3-chloro-N-(5-chloro-6-(2H-1,2,3-triazol-2-yl)pyridin-3-yl)-2-fluoro-8-methyl-8-(1-methyl-1H-pyrazol-4-yl)-7,8-dihydro-6H-cyclopenta[e]pyrazolo[1,5-a]pyrimidine-6-carboxamide]"
15,≤ 6.00,"Cn1cc([C@]2(C)C[C@@H](C(=O)Nc3cnc(OC(F)F)c(C#N)c3)c3cnc4cc(F)nn4c32)cn1 (single isomer, unassigned) [Example 41]"
16,6.00 to 7.00,"CC(F)(F)n1cc([C@]2(C)C[C@H](C(=O)Nc3cnc(-n4nccn4)c(Cl)c3)c3cnc4cc(F)nn4c32)cn1 (single isomer, unassigned) [Example 122]"
17,≤ 6.00,"C[C@@]1(c2cnn(C(F)F)c2)C[C@@H](C(=O)Nc2cnc(-n3nccn3)c(C(F)(F)F)c2)c2cnc3cc(F)nn3c21 (single isomer, unassigned) [Example 81]"
18,≤ 6.00,"C[C@@]1(c2cnn(C(F)F)c2)C[C@@H](C(=O)Nc2cnc(OC(F)F)c(C#N)c2)c2cnc3cc(F)nn3c21 (single isomer, unassigned) [Example 93]"
